Tests used:
[1] = molecular target: Phosphatidylinositol 4,5-bisphosphate 3-kinase catalytic subunit alpha isoform (Homo sapiens, UniProt P42336); test: Inhibition of recombinant human PI3Kalpha using diC8-PI(4,5)P2 as substrate after 3 hrs by fluorescence polarization method
[2] = test system: A549; test: Cytotoxicity against human A549 cells after 72 hrs by MTT assay; type: functional, cell-based; conditions: A549, 72 h
[3] = test system: HL-60; test: Cytotoxicity against human HL60 cells after 72 hrs by MTT assay; type: functional, cell-based; conditions: HL-60, 72 h
[4] = test system: HCT-116; test: cells; conditions: Homo sapiens, HCT-116, 72 h
[5] = test system: PC-3; test: cells; conditions: Homo sapiens, PC-3, 72 h
Description: Cytotoxicity against human PC3 cells after 72 hrs by MTT assay

Chain of Phosphatidylinositol 4,5-bisphosphate 3-kinase catalytic subunit alpha isoform (P42336 whole entry, canonical isoform): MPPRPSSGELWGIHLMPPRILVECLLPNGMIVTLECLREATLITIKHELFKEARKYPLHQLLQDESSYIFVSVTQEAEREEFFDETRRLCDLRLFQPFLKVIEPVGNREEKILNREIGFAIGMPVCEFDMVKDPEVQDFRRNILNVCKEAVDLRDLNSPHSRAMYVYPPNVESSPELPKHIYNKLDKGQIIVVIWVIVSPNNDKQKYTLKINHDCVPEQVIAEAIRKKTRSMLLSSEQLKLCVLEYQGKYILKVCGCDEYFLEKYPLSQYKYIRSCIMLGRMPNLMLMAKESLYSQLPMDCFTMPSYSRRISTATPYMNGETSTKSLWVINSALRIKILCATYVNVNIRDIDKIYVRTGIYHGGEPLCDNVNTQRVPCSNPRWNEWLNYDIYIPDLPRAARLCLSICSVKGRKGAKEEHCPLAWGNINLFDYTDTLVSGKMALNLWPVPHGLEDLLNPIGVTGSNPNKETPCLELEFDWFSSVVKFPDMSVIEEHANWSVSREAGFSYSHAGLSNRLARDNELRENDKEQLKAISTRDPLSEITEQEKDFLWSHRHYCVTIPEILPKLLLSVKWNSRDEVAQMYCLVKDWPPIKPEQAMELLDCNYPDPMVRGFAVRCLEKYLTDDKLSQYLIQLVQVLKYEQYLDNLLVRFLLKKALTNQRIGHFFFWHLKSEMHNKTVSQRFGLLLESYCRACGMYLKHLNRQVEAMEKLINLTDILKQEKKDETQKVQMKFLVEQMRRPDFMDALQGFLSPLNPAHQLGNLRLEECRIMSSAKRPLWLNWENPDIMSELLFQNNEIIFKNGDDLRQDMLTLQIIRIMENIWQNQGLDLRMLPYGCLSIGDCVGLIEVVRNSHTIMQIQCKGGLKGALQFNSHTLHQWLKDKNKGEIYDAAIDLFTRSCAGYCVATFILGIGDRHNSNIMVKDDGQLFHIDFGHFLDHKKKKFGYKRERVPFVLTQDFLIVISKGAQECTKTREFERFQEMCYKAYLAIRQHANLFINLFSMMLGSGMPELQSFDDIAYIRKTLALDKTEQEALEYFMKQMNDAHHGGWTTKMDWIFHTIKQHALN

Row | SMILES | IC50 [1] [µM] | IC50 [2] [µM] | IC50 [3] [µM] | IC50 [4] [µM] | IC50 [5] [µM]
1 | COc1ccc(S(=O)(=O)c2nc3ccccc3nc2N2CCOCC2)cc1 | 1.4 | 19.4 | 4.8 | > 50 | 0.88
2 | O=S(=O)(c1ccc(F)cc1)c1nc2ccccc2nc1N1CCOCC1 | 2.49 | 5.64 | 1.74 | 3.61 | 3.4
3 | O=S(=O)(c1ccc(Br)cc1)c1nc2ccccc2nc1N1CCOCC1 | 2.89 | 6.65 | 3.41 | 35 | 25.4
4 | c1ccc(Sc2nc3ccccc3nc2N2CCOCC2)cc1 | > 50 | 7.25 | 5.18 | 45.6 | > 50
5 | O=S(=O)(c1ccccc1)c1nc2ccccc2nc1N1CCCCC1 | 21.6 | > 50 | 27.1 | 6.48 | 26.9
6 | Cc1ccc(S(=O)(=O)c2nc3ccccc3nc2N2CCOCC2)cc1 | 1.58 | 3.3 | 0.95 | 10.5 | 9.34
